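Values below derive from 48-hour exposures of cells grown in 96-well plates, with endpoints linearly interpolated between the two concentrations bracketing the appropriate inhibition level. GI50: concentration for 50% inhibition of growth. TGI: concentration producing complete growth inhibition.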
What was measured:
Assay in all cases: NCI-60 cell line screen, 48 h
[1] = test system: A498 renal
[2] = test system: A549 NSCLC
[3] = test system: DU-145 prostate
[4] = test system: MDA-MB-231 breast
[5] = test system: NCI-H460 lung
[6] = test system: OVCAR-5 ovarian
[7] = test system: SNB-75 CNS
[8] = test system: T-47D breast
[9] = test system: UACC-257 melanoma
[10] = test system: UO-31 renal

`CN(C)CCOc1ccc(-c2cc(-c3ccc4c(c3)CC/C4=N\O)c(-c3ccncc3)o2)cc1` was tested, and the GI50 [1] was 4.22 µM, the TGI [1] was 8.17 µM and the GI50 [2] was 3.57 µM. It also gave a TGI [2] of 7.06 µM, a GI50 [3] of 3.78 µM and a TGI [3] of 7.38 µM. For the same molecule, the GI50 [4] was 3.34 µM, the TGI [4] was 7.19 µM and the GI50 [5] was 1.1 µM. It also gave a TGI [5] of 3.95 µM, a GI50 [6] of 3.32 µM and a TGI [6] of 6.79 µM. For the same molecule, the GI50 [7] was 1.27 µM, the TGI [7] was 6 µM and the GI50 [8] was 4.66 µM. The TGI [8] was 9.62 µM, the GI50 [9] was 0.0945 µM and the TGI [9] was 1.87 µM. For the same molecule, the GI50 [10] was 5.21 µM and the TGI [10] was 9.47 µM.

`CC(=O)c1ccc2c(c1)N(CCCN(C)C)c1ccccc1S2` showed a GI50 [1] of 11.4 µM, a TGI [1] of 25.1 µM and a GI50 [2] of 17.7 µM. For the same molecule, the TGI [2] was 34.2 µM, the GI50 [3] was 17.1 µM and the TGI [3] was 34.3 µM. The GI50 [4] was 11.1 µM, the TGI [4] was 24.8 µM and the GI50 [5] was 18 µM. The TGI [5] was 33.8 µM, the GI50 [6] was 13.9 µM and the TGI [6] was 27.9 µM. For the same molecule, the GI50 [7] was 1.99 µM, the TGI [7] was 16.4 µM and the GI50 [8] was 16.6 µM. For the same molecule, the TGI [8] was 39.6 µM, the GI50 [9] was 18.7 µM and the TGI [9] was 37.8 µM. For the same molecule, the GI50 [10] was 13.5 µM and the TGI [10] was 29.1 µM.

For `COc1ccc(Oc2cc(NCCC(F)(F)F)c3ncc(-c4ccc(C(=O)NC5CC5)c(C)c4)n3n2)c(F)c1F`, the TGI [1] was 25.7 µM, the GI50 [2] was 0.902 µM and the TGI [2] was over 59.2 µM. The GI50 [3] was 0.423 µM, the TGI [3] was over 100 µM and the GI50 [4] was 2.16 µM. The TGI [4] was over 100 µM, the GI50 [5] was under 0.01 µM and the TGI [5] was over 54 µM. It also gave a GI50 [6] of 24.9 µM, a TGI [6] of over 100 µM and a GI50 [7] of 1.61 µM. It also gave a TGI [7] of 31.1 µM, a GI50 [8] of 1.9 µM and a TGI [8] of over 92.7 µM. For the same molecule, the GI50 [9] was 9.26 µM, the TGI [9] was 59.5 µM and the GI50 [10] was 0.355 µM. For the same molecule, the TGI [10] was over 53.6 µM.

`Nc1ncnc2nn(C3OC(CO)C(O)C3O)nc12` (centres undefined) was tested, and the TGI [1] was over 59.6 µM, the TGI [2] was over 64 µM and the TGI [3] was over 45.4 µM. The TGI [4] was over 25.2 µM, the TGI [5] was 25.3 µM and the TGI [6] was over 95.3 µM. For the same molecule, the TGI [7] was 54.1 µM, the TGI [8] was over 44.5 µM and the TGI [9] was over 87.1 µM. It also gave a TGI [10] of 49 µM.

`Cc1cc(O)cc(C)c1/C=C/c1cncc(C(=O)OC(C)(C)C)c1` was tested, and the GI50 [1] was 8.09 µM, the TGI [1] was over 25 µM and the GI50 [2] was 9.23 µM. For the same molecule, the TGI [2] was over 25 µM, the GI50 [3] was 17 µM and the TGI [3] was over 25 µM. The GI50 [4] was 14 µM, the TGI [4] was over 25 µM and the GI50 [5] was 13.5 µM. For the same molecule, the TGI [5] was over 25 µM, the GI50 [6] was over 25 µM and the TGI [6] was over 25 µM. The GI50 [7] was 4.75 µM, the TGI [7] was over 23.9 µM and the GI50 [8] was 10.7 µM. It also gave a TGI [8] of over 25 µM, a GI50 [9] of 19.6 µM and a TGI [9] of over 25 µM. The GI50 [10] was 8.34 µM and the TGI [10] was over 25 µM.

In the case of `CNCCCn1c2c(c3ccc(F)cc3c1=O)C(=O)c1cc(OC)cnc1-2`, the GI50 [1] is reported as 0.369 µM, the TGI [1] is reported as 1.61 µM and the GI50 [2] is reported as 0.105 µM. The TGI [2] was 0.288 µM, the GI50 [3] was 0.202 µM and the TGI [3] was 1.12 µM. It also gave a GI50 [4] of 0.7 µM, a TGI [4] of 2.38 µM and a GI50 [5] of 0.0492 µM. It also gave a TGI [5] of 0.261 µM, a GI50 [6] of 0.352 µM and a TGI [6] of 1.87 µM. For the same molecule, the GI50 [7] was 0.252 µM, the TGI [7] was 3.28 µM and the GI50 [8] was 0.16 µM. It also gave a TGI [8] of 0.704 µM, a GI50 [9] of 0.485 µM and a TGI [9] of 1.9 µM. The GI50 [10] was 0.13 µM and the TGI [10] was 0.809 µM.

`Cn1c2ccccc2c2nnc(NNCc3ccccn3)nc21` was tested, and the GI50 [1] was 0.415 µM, the TGI [1] was 12.3 µM and the GI50 [2] was 0.414 µM. For the same molecule, the TGI [2] was 16.4 µM, the GI50 [3] was 0.312 µM and the TGI [3] was 11 µM. For the same molecule, the GI50 [4] was 1.03 µM, the TGI [4] was 18 µM and the GI50 [5] was 0.3 µM. The TGI [5] was 4.03 µM, the GI50 [6] was 1.01 µM and the TGI [6] was 15.3 µM. The GI50 [7] was 1.16 µM, the TGI [7] was 14.1 µM and the GI50 [8] was 0.369 µM. For the same molecule, the TGI [8] was 8.98 µM, the GI50 [9] was 0.641 µM and the TGI [9] was 11.1 µM. It also gave a GI50 [10] of 0.258 µM and a TGI [10] of 1.98 µM.

In the case of `Cc1ccc(C)c2c(N=Nc3ccccc3[N+](=O)[O-])c(O)[nH]c12`, the TGI [1] is reported as over 100 µM, the TGI [2] is reported as over 100 µM and the TGI [3] is reported as over 100 µM. The TGI [4] was over 100 µM, the TGI [5] was over 100 µM and the TGI [6] was over 100 µM. The TGI [7] was over 100 µM, the TGI [8] was over 100 µM and the TGI [9] was over 100 µM. For the same molecule, the TGI [10] was over 100 µM.

For `C[C@]12CC[C@@H]3c4ccc(O)cc4CC[C@H]3[C@@H]1CC[C@@H]2NS(=O)(=O)c1ccc2ccccc2c1`, the GI50 [1] was 1.72 µM, the TGI [1] was 4.01 µM and the GI50 [2] was 3.24 µM. The TGI [2] was 13.2 µM, the GI50 [3] was 4.14 µM and the TGI [3] was 17.5 µM. The GI50 [4] was 1.81 µM, the TGI [4] was 4.68 µM and the GI50 [5] was 2.21 µM. The TGI [5] was 4.97 µM, the GI50 [6] was 3.4 µM and the TGI [6] was 13.4 µM. The GI50 [7] was 2.1 µM, the TGI [7] was 12.6 µM and the GI50 [8] was 3.9 µM. It also gave a TGI [8] of 16.3 µM, a GI50 [9] of 3.3 µM and a TGI [9] of 17.6 µM. For the same molecule, the GI50 [10] was 1.83 µM and the TGI [10] was 5.57 µM.

Molecule `COc1ccc(C(=O)OC2C(OC3C(O)COC(O[C@H]4C[C@H]5[C@@H]6CC=C7C[C@@H](O)CC[C@]7(C)[C@H]6CC[C@]5(C)[C@H]4[C@H](C)C(=O)CCC(C)C)C3OC(C)=O)OCC(O)C2O)cc1` (some centres undefined) has a GI50 [1] of under 0.003 µM, a TGI [1] of under 0.003 µM and a GI50 [2] of under 0.003 µM. It also gave a TGI [2] of 9.95 µM, a GI50 [3] of under 0.003 µM and a TGI [3] of 24.3 µM. It also gave a GI50 [4] of 0.0313 µM, a TGI [4] of 4.55 µM and a GI50 [5] of under 0.003 µM. For the same molecule, the TGI [5] was 0.306 µM, the GI50 [6] was 0.00601 µM and the TGI [6] was 1.63 µM. The GI50 [7] was under 0.003 µM, the TGI [7] was 4.36 µM and the GI50 [8] was under 0.003 µM. It also gave a TGI [8] of 1.13 µM, a GI50 [9] of under 0.003 µM and a TGI [9] of 0.0072 µM. The GI50 [10] was under 0.003 µM and the TGI [10] was 0.0056 µM.

Source: PubChem BioAssay (NCI)
